# Columns and labels:
# Assay type in all cases: biochemical
# [1] = system: Fe2+-induced lipid peroxidation in rat brain homogenate; test: Fe2+-induced lipid peroxidation (TBARS) assay in brain homogenate; conditions: for Lipid peroxidation IC50: FeSO4, 37 °C 30 min, TBARS 532 nm; for IC50: IC50 values in µM presented for comparison, read-out: LP (IC50 in µM)
# Procedure: Thiobarbituric acid reactive species (TBARS) assay was used to measure the lipid peroxide formed using brain tissue homogenates as lipid-rich media, as described by Ruberto et al. ([2000]) with slight modifications. […] Thereafter, 0.05 mL of FeSO4 was added and the mixture was incubated at 37 °C for 30 min. Then, 1.5 mL of acetic acid was added, followed by 1.5 mL of TBA in SDS. The resulting mixture was mixed and heated at 95 °C for 60 min. After cooling, 5 mL of butanol was added and the mixture was centrifuged at 3000 rpm for 10 min. The absorbance of the organic upper layer was measured at 532 nm and the percentage inhibition was calculated with the formula: (2) %inhibition=[A control – A sample/Acontrol]×100
# [2] = DPPH radical scavenging assay; conditions: for DPPH radical IC50: 3.125–100 µg/mL, 30 min in the dark, absorbance 518 nm, triplicate; for IC50: IC50 values in µM presented for comparison
# Procedure: Based on the principle, when DPPH reacts with an antioxidant compound that can donate hydrogen, it is reduced. The change in colour from deep violet to golden/light yellow can be measured at 518 nm. Briefly, 1 mL of 0.3 mM of DPPH solution was added to 1 mL of each of the test solutions. […] The mixtures were vortexed thoroughly and allowed to stand at room temperature in the dark for 30 min, […]. The absorbance values were recorded at 518 nm, and converted into percentage antioxidant activity, using the formula below: Results were expressed as a percentage of inhibitions (100%). […] Each test was carried out in triplicates.
# The % DPPH scavenging effect of the antioxidant was calculated as follows: (1) %DPPH scavenging effect=[A control – A sample/Acontrol]× 100
# rat serum BuChE = target: T1, rat serum BuChE (Rattus norvegicus, UniProt Q9JKC1); test: BuChE inhibition, Ellman's colorimetric method; conditions: BuChE IC50, rat blood enzyme, butyrylthiocholine iodide
# T1 construct: from tissue; host or cells: rat blood (serum)
# T1 sequence (Q9JKC1 24-597): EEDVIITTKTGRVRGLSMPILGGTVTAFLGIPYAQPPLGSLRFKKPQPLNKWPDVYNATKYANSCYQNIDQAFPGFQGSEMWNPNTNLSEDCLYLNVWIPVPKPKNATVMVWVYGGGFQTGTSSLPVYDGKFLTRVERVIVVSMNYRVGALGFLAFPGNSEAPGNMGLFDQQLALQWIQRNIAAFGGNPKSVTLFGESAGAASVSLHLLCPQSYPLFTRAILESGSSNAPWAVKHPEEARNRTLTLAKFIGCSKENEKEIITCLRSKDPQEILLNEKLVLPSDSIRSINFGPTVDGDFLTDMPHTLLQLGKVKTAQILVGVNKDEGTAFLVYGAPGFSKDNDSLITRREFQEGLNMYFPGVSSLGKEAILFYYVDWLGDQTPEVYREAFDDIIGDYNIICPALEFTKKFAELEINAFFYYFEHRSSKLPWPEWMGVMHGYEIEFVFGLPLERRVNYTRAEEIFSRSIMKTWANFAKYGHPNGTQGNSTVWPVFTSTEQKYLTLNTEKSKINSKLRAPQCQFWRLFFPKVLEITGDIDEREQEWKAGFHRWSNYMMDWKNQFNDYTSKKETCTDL
# Procedure: Whole-brain tissue from adult male Wistar rat was used as a source of AChE enzyme and a lipid-rich media for lipid peroxidation assay while rat blood tissue was used as a source of BuChE enzyme.
# For the enzyme source, the rat brains were homogenized in a homogenizer with 10 volumes of a homogenization buffer (10 mM Tris-HCl, pH 7.2) containing 1 M NaCl, 50 mM MgCl2 and1% Triton X-100 and centrifuged at 10,000 rpm for 30 min. The resulting supernatants were collected, and the solution of these supernatants was used as an enzyme source. The temperature was maintained at 4 °C throughout the excretion procedure. The rate of AChE hydrolysis was monitored spectrophotometrically. […] Absorbance at 405 nm was recorded immediately after adding Ellman’s reaction mixture (3.5 mL; 0.5 mM acetylthiocholine, 1 mM DTNB) in a 50 mM sodium phosphate buffer (pH 8.0) to the reaction mixture. Readings were repeated for 30 min to verify the reaction. […] The percentage of AChE inhibition was calculated using the following formula: (3) %Cholinesterase inhibition=[A control – A sample/Acontrol]×100
# Assessment of BuChE inhibition was performed as described in Equation (3) except that the enzyme solution was (100 μL) acetylthiocholine iodide was replaced with butyrylthiocholine iodide. All other reagents and conditions remained the same.
SMILES,Lipid peroxidation IC50 [1],IC50 [1],DPPH radical IC50 [2],IC50 [2],IC50 (rat serum BuChE)
"O=C1O[C@H]([C@@H](O)CO)C(O)=C1O [Ascorbic acid, ascorbic acid]",14.393 ± 0.54 µg/mL,81.72 ± 0.309 µM,10.186 ± 0.14 µg/mL,57.8 ± 0.827 µM,–
O=c1c(O)c(-c2ccc(O)c(O)c2)oc2cc(O)cc(O)c12 [Quercetin],25.242 ± 1.97 µg/mL,83.51 ± 0.654 µM,13.803 ± 0.34 µg/mL,45.7 ± 1.13 µM,80.5 µM
